From US5627185A, “Acyclovir derivatives as antiviral agents” (priority 1995, dated 1997)
Where “and” joins values, the source holds several entries; their conditions need not be identical. Identical values can stand only once. Like-named read-outs stand apart in the source and are kept apart here.

Key:
[1] = in vitro; format: cell-based; details: human, cem cells
Experimental: The toxic effect on non-infected CEMs is assessed by a […] reaction based on the capacity of living cells to reduce 3-(4,5 dimethylthiazol-2-yl)-2,5 diphenyltetrazolium bromide into formazan after incubation for five days in the presence of various concentrations of the compounds. The results are expressed as the lowest concentration of compound which results in at least 50% inhibition of the formation of formazan (CD50).
(§1) 2. Anti-HIV activity on CEM TK- cells of Bis(S-acyl-2-thioethyl) phosphotriesters derivatives of acyclovir, as compared with those of the parent nucleoside and of AZT are shown in Table 2.

[2] = tested on: Human Immunodeficiency virus (HIV-1, LAI isolate) replication in CEM TK- cells; experiment: Anti-HIV activity on CEM TK- cells; format: cell-based; details: Human immunodeficiency virus 1, CEM-TK(-), read-out: EC50 (anti-HIV)
Experimental: The experimental procedure used for evaluation of activities against Human Immunodeficiency virus (HIV) is as follows:
HIV-1 replication (LAI isolate) in CEM cells are measured by assaying for […] (RTase) in the culture supernatant after infection for five days. This activity reflects the presence of the virus released by the cells. After absorption of the virus, the test compounds are added at various concentrations in the culture medium. Antiviral activity is expressed as the lowest concentration of compound which reduces the vital production by at least 50% (ED50)
as §1
In Table 2, EC50 represents the molar concentration which produces a 50% inhibition of HIV replication. Significant inhibition is shown.

[3] = tested on: Hepatitis B virus (HBV); details: background; cited from earlier work
[4] = tested on: Hepatitis B virus (HBV) replication, HBV virion, in transfected HepG2 (2.2.15) cells; experiment: Anti-HBV activity on transfected HepG2 (2.2.15) cells (HBV virion); format: cell-based; details: for EC50: 50% inhibition of HBV replication; for EC90: 90% inhibition of HBV replication; for SI: SI = CC50/EC90
From the text: (§2) The experimental procedure used for evaluation of activity against Hepatitis B virus is as previously described by Korba and Milman in Antiviral Res. […].
(§3) 1. Anti-HBV activity on transfected HepG2 (2.2.15) cells of Bis(S-acyl-2-thioethyl)phosphotriester derivatives of Acyclovir, (compound 9 of Figure I), as compared with those of the parent nucleoside and of 2',3'-dideoxyguanosine (ddG) and 2',3'-dideoxycytidine (ddC) are shown in Table 1.
(§4) In Table 1, EC90 and EC50 represent the molar concentrations which provide respectively a 90% and a 50% inhibition of HBV replication. CC50 represents the molar concentration which reduces the viability of non-infected cells by 50%.

[5] = Viability of non-infected cells (CC50, Table 1); format: cell-based; details: human, hepg2 2.2.15 cells, reduces viability of non-infected cells by 50%
From the text: as §2, §3, §4

[6] = tested on: Cytomegalovirus; details: background; thymidine kinase activity reduced or missing; cited from earlier work
[7] = tested on: Herpes Simplex virus (HSV); details: background; due to selective monophosphorylation by HSV thymidine kinase; cited from earlier work
[8] = tested on: Epstein-Barr virus; details: background; thymidine kinase activity reduced or missing; cited from earlier work
[9] = tested on: Herpes simplex virus type 1 (HSV-1) in MRC-5 cells; experiment: Anti-HSV activity on MRC-5 cells, HSV-1; format: cell-based; details: Human alphaherpesvirus 1, MRC5, 50% inhibition of HSV-1 replication
From the text: (§5) The experimental procedure used for evaluation of activities against Herpes simplex virus type 1 (HSV-1) is the as described by Genu-Dellac et al. in Nucleosides and Nucleotides, 10, 1345, (1991).
(§6) 3. Anti HSV activity on MRC-5 cells of Bis(S-acyl-2thioethyl)phosphotriesters derivatives of acyclovir is compared to that of Acyclovir in Table 3.
(§7) EC50 represents the molar concentration which produces a 50% inhibition of HSV-1 replication. Significant activity is shown.

[10] = tested on: HSV-1 TK- in MRC-5 cells; experiment: Anti-HSV activity on MRC-5 cells, HSV-1 TK-; format: cell-based, Herpes simplex virus type 1 TK-; details: Human alphaherpesvirus 1, MRC5, read-out: HSV-1 TK- EC50
From the text: as §5, §6, §7

[11] = tested on: Human Immunodeficiency virus (HIV); details: background; cited from earlier work
[12] = tested on: HepG2 (2.2.15) cells; experiment: Viability of non-infected cells (CC50, Table 1); format: cell-based; details: reduces viability of non-infected cells by 50%
From the text: as §2, §3, §4

[13] = Hepatitis B virus, HepG2 2.2.15, read-out: HBV virion EC50, transfected HepG2 (2.2.15) cells
[14] = Hepatitis B virus, HepG2 2.2.15, transfected HepG2 (2.2.15) cells
[15] = Hepatitis B virus, HepG2 2.2.15, transfected HepG2 (2.2.15) cells, read-out: HBV virion EC50

Row | Compound | CC50 at 120 h [1] [µM] | cytotoxicity at 120 h, 100 µM [1] [%] | EC50 [2] [µM] | activity against HBV (in words) [3] | EC50 [4, 13] [µM] | EC90 [4, 14] [µM] | CC50 [5] [µM] | activity against Cytomegalovirus (in words) [6] | anti-herpetic activity (in words) [7] | activity against Epstein-Barr virus (in words) [8] | EC50 [9] [µM] | EC50 [10] [µM] | activity against HIV (in words) [11] | EC50 [4, 15] [µM] | SI [4] | cytotoxicity at 120 h, 10 µM [1] [%] | EC50 ([4]; transfected HepG2 (2.2.15) cells, read-out: HBV virion EC50) [µM] | CC50 [12] [µM]
1 | Cc1cn([C@H]2C[C@H](N=[N+]=[N-])[C@@H](CO)O2)c(=O)[nH]c1=O [AZT] | > 100 | 5 | > 100 | – | – | – | – | – | – | – | – | – | – | – | – | – | – | –
2 | Nc1nc2c(ncn2COCCO)c(=O)[nH]1 [Acyclovir, acyclovir] | > 100 | 0 | > 100 | no activity | 111 ± 15 | > 100 | 631 ± 40 | poorly active | anti-herpetic activity | poorly active | 0.63 | > 100 | no activity | – | – | – | – | –
3 | CC(=O)SCCOP(=O)(OCCOCn1cnc2c(=O)[nH]c(N)nc21)OCCSC(C)=O [Bis(SATE)ACVMP, O-[1-(Methyl-[9-guanin-yl])-1-hydroxyethyl-2-yl]-O',O"-bis(S-acetyl-2-thioethyl) phosphate] | > 100 | 0 | 77 | – | – | 5.1 ± 1 | 987 ± 99 | – | – | – | 1.25 | 100 | – | 0.7 ± 0.1 | 194 | – | – | –
4 | CC(C)(C)C(=O)SCCOP(=O)(OCCOCn1cnc2c(=O)[nH]c(N)nc21)OCCSC(=O)C(C)(C)C [Bis(SPTE)ACVMP, O-[1-(Methyl-[9-guanin-yl]) -1-hydroxyethyl-2-yl]-O',O"-bis(S-pivaloyl-2-thioethyl) phosphate] | > 10 | – | 3.6 | – | – | 7.1 ± 0.8 | 1590 ± 131 | – | – | – | 2.5 | 10 | – | 0.2 ± 0.04 | 224 | 26 | – | –
5 | Nc1ccn([C@H]2CC[C@@H](CO)O2)c(=O)n1 [ddC, 2',3'-dideoxycytidine] | – | – | – | – | 1.3 ± 0.2 | – | 219 ± 19 | – | – | – | – | – | – | – | 20 and 30 | – | 2.2 ± 0.3 | 218 ± 19
